Patent US20050054845A1, “Thymosin augmentation of genetic immunization” (Rhode Island Hospital, priority 2001, published 2005)
Ends that are not written are not given here.

Legend:
[1] = system: SP2—NS5 cells; test: Cytotoxicity (CTL) 51Cr-release assay after genetic immunization; type: in vivo, Balb/c mice; conditions: co-administration of 5 μg thymosin α1 i.p. twice/week with 50 μg pAp031NS5 DNA vs DNA alone; L/T ratios 1:10 and 1:100; 4-hour 51Cr-release; FIG. 4
Procedure: (§1) To enhance the cellular uptake of plasmid DNA, the quadriceps muscle of Balb/c mice was injected at multiple sites with a total of 100 μL of 0.25% hupivacaine. Four days later, the plasmid constructs were injected into the same region at five different sites in a final volume of 100 μL 0.9% NaCl. Two weeks later the mice were boosted in the opposite leg with plasmid DNA. The mice were killed ten days after the last immunization. There were three groups of mice each containing five animals. Group 1=mice immunized with 100 μg mock DNA; Group 2=mice immunized with 50 μg pAp031NS5 and 50 μg mock DNA; Group 3=mice immunized with 50 μg pAp031 NS5 and 50 μg mock DNA, and received 5 μg thymosin α1 i.p. twice/week. Animals were immunized three times two weeks apart, and studies were performed ten days after the final immunization.
Spleen cells from immunized mice were suspended in complete DMEM containing 10% FCS and 50 μmol/L 2-mercaptoethanol; the cells were then analyzed for cytotoxic activity 5 days after in vitro stimulation. […] Percent cytotoxicity was calculated as: [formula] […] Total release represents the radioactivity released after total lysis of target cells with 5% TritonX-100. […]
Spontaneous release represents the radioactivity present in medium derived from target cells only. […]

[2] = system: spleen cells stimulated with recombinant NS5; test: T-cell proliferation assay after genetic immunization; type: in vivo, Balb/c mice; conditions: co-administration of 5 μg thymosin α1 i.p. twice/week with 50 μg pAp031NS5 DNA vs DNA alone; all three challenge concentrations; [3H]-thymidine incorporation; FIG. 3
Procedure: as §1
Mice were anesthetized with isoflurane (Aerrane, Anaquest, N.J.), blood was removed by retrobulbar puncture and spleen cells were harvested. Red blood cells were removed by incubation in […] NH4C1/0.17 mol/L Tris (pH 7.4) for 10 minutes at 37° C. […] The [^3H]-thymidine incorporation into DNA was measured after harvesting. […] Incorporation of radioactivity was corrected for background activity (Δ cpm). […]

[3] = in vivo; cited from earlier work

In the case of “thymosin α1 (SDAAVDTSSEITTKDLKEKKEVVEEAEN; ends and bridges not checked; UniProt P06454 2-29, looked up) [α thymosin]”, the “increase of percent cytotoxicity” value [1] is given as at least 100%, the “increase of CD4 proliferative response” value [2] is given as “approximately 100%” and the “dose found to be safe for humans” value [3] is given as at most 16 mg/kg body weight/day.
